Target: T1, GPR40 (Homo sapiens, UniProt O14842)
T1 construct: expressed in transfected cells; host or cells: HEK293 cells stably expressing GPR40 (Hygromycin selection)
Assay: IP1 accumulation assay in HEK293 cells stably expressing GPR40
Assay type: cell-based
In short: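 HEK293 cells stably expressing human GPR40 were incubated with compounds (10-point, 3-fold dilution series) for 2 h at 37 °C, then IP1 was detected by HTRF (665/615 nm ratio). Effect was normalised to DMSO blank and AMG-1638 as 100%, and EC50 was derived from dose curves.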

[1] = IP1 accumulation, HEK293 cells stably expressing GPR40, 2 hours at 37° C., % effect relative to AMG-1638, table of Biological Example 1
[2] = Table A-8 (additional examples), obtained by methods of Biological Example 1

T1 sequence (O14842 whole entry): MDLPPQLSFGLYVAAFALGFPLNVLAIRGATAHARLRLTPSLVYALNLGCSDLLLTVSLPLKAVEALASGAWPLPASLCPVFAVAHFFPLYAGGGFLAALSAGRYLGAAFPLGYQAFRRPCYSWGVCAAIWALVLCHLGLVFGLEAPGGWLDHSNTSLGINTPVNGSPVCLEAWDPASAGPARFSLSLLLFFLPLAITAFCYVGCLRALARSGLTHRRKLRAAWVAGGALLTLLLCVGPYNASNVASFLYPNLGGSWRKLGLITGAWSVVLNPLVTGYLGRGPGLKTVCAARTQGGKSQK

Row | Compound | EC50 [1] [nM] | EC50 [2] [nM]
1 | COc1ccc(F)c(-c2ccc(COc3cccc([C@@H](CC(=O)O)C4CC4)c3)cc2CC(C)(C)Cn2cc(CCCCCCCCCCCCCC(=O)NCCCN(CC(=O)NCCN)CC(=O)NCCN)nn2)c1 [Example 152] | 34.4 | 
2 | COc1ccc(F)c(-c2ccc(COc3cccc([C@@H](CC(=O)O)C4CC4)c3)cc2CC(C)(C)Cn2cc(CCCCCCCCCCCCCCCC(=O)NCCCN(CC(=O)NCCN)CC(=O)NCCN)nn2)c1 [Example 153] | 6.64 | 
3 | COc1ccc(F)c(-c2ccc(COc3cccc([C@@H](CC(=O)O)C4CC4)c3)cc2CC(C)(C)Cn2cc(CCCCCCCCCCCCCC(=O)NCCC[N+](C)(CC(=O)NCCN)CC(=O)NCCN)nn2)c1 [Example 155] | 18.8 | 
4 | COc1ccc(F)c(-c2ccc(COc3cccc([C@@H](CC(=O)O)C4CC4)c3)cc2C(C)(C)Cn2cc(CCCCCCCCCCCCCCCCCC(=O)NCC[N+](C)(CCC(=O)NCCN)CCC(=O)NCCN)nn2)c1 [Example 158] | 8.97 | 
5 | COc1ccc(C(=O)N(CC(C)(C)CCn2cc(COCCOCCOCC(=O)NCCN(CCC(=O)NCCN)CCC(=O)NCCN)nn2)c2cccc(C)n2)c(N2CCC(COc3cc([C@@H](CC(=O)O)C4CC4)ccn3)CC2)c1 [Example 159] | > 6000 | > 6000
6 | COc1ccc(C(=O)N(CC(C)(C)CCn2cc(COCCOCCOCCOCCOCC(=O)NCCN(CCC(=O)NCCN)CCC(=O)NCCN)nn2)c2cccc(C)n2)c(N2CCC(COc3cc([C@@H](CC(=O)O)C4CC4)ccn3)CC2)c1 [Example 161] | 2200 | 2200
7 | COc1ccc(C(=O)N(CC(C)(C)CCn2cc(COCCOCCOCC(=O)NCC[N+](C)(CCC(=O)NCCN)CCC(=O)NCCN)nn2)c2cccc(C)n2)c(N2CCC(COc3cc([C@@H](CC(=O)O)C4CC4)ccn3)CC2)c1 [Example 162] | 1250 | 1250
8 | COc1ccc(C(=O)N(CC(C)(C)CCn2cc(COCCOCCOCCOCC(=O)NCC[N+](C)(CCC(=O)NCCN)CCC(=O)NCCN)nn2)c2cccc(C)n2)c(N2CCC(COc3cc(C(CC(=O)O)C4CC4)ccn3)CC2)c1 (stereo not shown) [Example 163] | > 5000 | > 5000
9 | COc1ccc(C(=O)N(CC(C)(C)CCn2cc(COCCOCCOCCOCCOCC(=O)NCC[N+](C)(CCC(=O)NCCN)CCC(=O)NCCN)nn2)c2cccc(C)n2)c(N2CCC(COc3cc([C@@H](CC(=O)O)C4CC4)ccn3)CC2)c1 [Example 164] | 1330 | 1330
10 | COc1ccc(F)c(-c2ccc(COc3cccc([C@@H](CC(=O)O)C4CC4)c3)cc2CC(C)(C)Cn2cc(COCCOCCOCC(=O)NCCN(CCC(=O)NCCN)CCC(=O)NCCN)nn2)c1 [Example 165] | > 10000 | > 10000

Stronger by EC50 [1], values ahead:

Row | EC50 [1] [nM] | EC50 [2] [nM] | Compound
11 | 0.09 |  | COc1ccc(C(=O)N(CC(C)(C)CCCCCCn2cc(CCCCCCCCCCCCCCCCCC(=O)NCCCN(C)CC(=O)NCCN)nn2)c2cccc(C)n2)c(N2CCC(COc3cc([C@@H](CC(=O)O)C4CC4)ccn3)CC2)c1 [Example 149]
12 | 0.07 |  | COc1ccc(C(=O)N(CC(C)(C)CCn2cc(CCCCCCCCCCCCCCCCCC(=O)NCCCN(C)CC(=O)NCCN)nn2)c2cccc(C)n2)c(N2CCC(COc3cc([C@@H](CC(=O)O)C4CC4)ccn3)CC2)c1 [Example 150]
13 | 0.05 |  | COc1ccc(C(=O)N(CC(C)(C)CCn2cc(CCCCCCCCCCCCCCCCCC(=O)NCCC[N+](C)(C)CC(=O)NCCN)nn2)c2cccc(C)n2)c(N2CCC(COc3cc([C@@H](CC(=O)O)C4CC4)ccn3)CC2)c1 [Example 151]
14 | 1.04 |  | COc1ccc(F)c(-c2ccc(COc3cccc([C@@H](CC(=O)O)C4CC4)c3)cc2CC(C)(C)Cn2cc(CCCCCCCCCCCCCCCCCC(=O)NCCCN(CC(=O)NCCN)CC(=O)NCCN)nn2)c1 [Example 154]
15 | 2.53 |  | COc1ccc(F)c(-c2ccc(COc3cccc([C@@H](CC(=O)O)C4CC4)c3)cc2CC(C)(C)Cn2cc(CCCCCCCCCCCCCCCC(=O)NCCC[N+](C)(CC(=O)NCCN)CC(=O)NCCN)nn2)c1 [Example 156]
16 | 0.54 |  | COc1ccc(F)c(-c2ccc(COc3cccc([C@@H](CC(=O)O)C4CC4)c3)cc2CC(C)(C)Cn2cc(CCCCCCCCCCCCCCCCCC(=O)NCCC[N+](C)(CC(=O)NCCN)CC(=O)NCCN)nn2)c1 [Example 157]
